Measured values reported in patent publication US20250154152A1, “INHIBITORS OF NAEGLERIA FOWLERI” (Wisconsin Alumni Research Foundation, priority 2023, published 2025).

The compounds below were run on N. fowleri strain Nf69 (ATCC 30215) trophozoites (assay: Determination of EC50 values against Naegleria fowleri (growth inhibition, CellTiter Glo, 48 h)). Conditions: ATCC30215, 48 h, read-out: EC50 uM against N. fowleri.
Type: cell-based
Outline: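 Axenic Nf69 trophozoites in Nelson's complete medium with 10% FBS exposed to compound, initially 20–0.375 μM, for 48 h at 37 °C, 5% CO2. Viability read by CellTiter-Glo luminescence; % growth inhibition versus controls, triplicate averages fitted for EC50, with lower ranges used for very potent compounds.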

`CN1CCC[C@H]2c3nc4ccc(Cl)cc4c(=O)n3CC[C@@H]21` [trans-10b-ent-2, (4aS,13bR)-10-chloro-4-methyl-1,2,3,4,4a,5,6,13b-octahydro-8H-[1,6]naphthyridino[5,6-b]quinazolin-8-one] and `CN1CCC[C@H]2c3nc4ccc(C(F)(F)F)cc4c(=O)n3CC[C@@H]21` [trans-10d-ent-2, (4aS,13bR)-4-methyl-10-(trifluoromethyl)-1,2,3,4,4a,5,6,13b-octahydro-8H-[1,6]naphthyridino[5,6-b]quinazolin-8-one] fall in the same range of EC50: 1 to 10 µM for the first, 1 to 10 µM for the second.

`CN1CCC[C@H]2c3nc4cc(Cl)c(Cl)cc4c(=O)n3CC[C@@H]21` [trans-10f-ent-2, (4aS,13bR)-10,11-dichloro-4-methyl-1,2,3,4,4a,5,6,13b-octahydro-8H-[1,6]naphthyridino[5,6-b]quinazolin-8-one] gave an EC50 of 1 to 10 µM.

Same assay, conditions: ATCC30215, N. fowleri Nf69 trophozoites, 48 h culture, 37° C., CellTiter Glo luminescence, read-out: EC50 uM against N. fowleri

`Cn1c([C@@H]2CCCN(CC3COC3)C2)nc2ccc(C#N)cc2c1=O` [Compound R-14o, (R)-3-methyl-2-(1-(oxetan-3-ylmethyl)piperidin-3-yl)-4-oxo-3,4-dihydroquinazoline-6-carbonitrile] and `Cn1c([C@@H]2CCCN(CC3COC3)C2)nc2ccc(Cl)cc2c1=O` [Compound R-14p, (R)-6-chloro-3-methyl-2-(1-(oxetan-3-ylmethyl)piperidin-3-yl)quinazolin-4(3H)-one] cannot be ordered by EC50: greater than 10 µM for the first, greater than 10 µM for the second.

`Cn1c([C@@H]2CCCN(CC3COC3)C2)nc2ccc(F)cc2c1=O` [Compound R-14q, (R)-6-fluoro-3-methyl-2-(1-(oxetan-3-ylmethyl)piperidin-3-yl)quinazolin-4(3H)-one] and `Cn1c([C@@H]2CCCN(CC3COC3)C2)nc2cc(F)ccc2c1=O` [Compound R-14r, (R)-7-fluoro-3-methyl-2-(1-(oxetan-3-ylmethyl)piperidin-3-yl)quinazolin-4(3H)-one] cannot be ordered by EC50: greater than 10 µM for the first, greater than 10 µM for the second.

`COc1ccc2nc([C@@H]3CCCN(CC4COC4)C3)n(C)c(=O)c2c1` [Compound R-14s, (R)-6-methoxy-3-methyl-2-(1-(oxetan-3-ylmethyl)piperidin-3-yl)quinazolin-4(3H)-one] and `Cn1c([C@@H]2CCCN(CC3COC3)C2)nc2ccc(C(F)(F)F)cc2c1=O` [Compound R-14t, (R)-3-methyl-2-(1-(oxetan-3-ylmethyl)piperidin-3-yl)-6-(trifluoromethyl)quinazolin-4(3H)-one] cannot be ordered by EC50: greater than 10 µM for the first, greater than 10 µM for the second.

`Cn1c([C@@H]2CCCN(Cc3ccncc3)C2)nc2cc(Cl)c(Cl)cc2c1=O` [Compound R-14u, (R)-6,7-dichloro-3-methyl-2-(1-(pyridin-4-ylmethyl)piperidin-3-yl)quinazolin-4(3H)-one] and `Cn1c([C@@H]2CCCN(Cc3cccnc3)C2)nc2cc(Cl)c(Cl)cc2c1=O` [Compound R-14v, (R)-6,7-dichloro-3-methyl-2-(1-(pyridin-3-ylmethyl)piperidin-3-yl)quinazolin-4(3H)-one] cannot be ordered by EC50: greater than 10 µM for the first, greater than 10 µM for the second.

`Cn1c([C@@H]2CCCN(Cc3ccccn3)C2)nc2cc(Cl)c(Cl)cc2c1=O` [Compound R-14w, (R)-6,7-dichloro-3-methyl-2-(1-(pyridin-2-ylmethyl)piperidin-3-yl)quinazolin-4(3H)-one] and `Cn1c([C@@H]2CCCN(Cc3cnccn3)C2)nc2cc(Cl)c(Cl)cc2c1=O` [Compound R-14x, (R)-6,7-dichloro-3-methyl-2-(1-(pyrazin-2-ylmethyl)piperidin-3-yl)quinazolin-4(3H)-one] cannot be ordered by EC50: greater than 10 µM for the first, greater than 10 µM for the second.

`Cn1c([C@@H]2CCCN(CCO)C2)nc2cc(Cl)c(Cl)cc2c1=O` [Compound R-14z, (R)-6,7-dichloro-2-(1-(2-hydroxyethyl)piperidin-3-yl)-3-methylquinazolin-4(3H)-one] and `Cn1c([C@H]2CCCN(CCO)C2)nc2cc(Cl)c(Cl)cc2c1=O` [Compound S-14y, (S)-6,7-dichloro-2-(1-(2-hydroxyethyl)piperidin-3-yl)-3-methylquinazolin-4(3H)-one] cannot be ordered by EC50: greater than 10 µM for the first, greater than 10 µM for the second.

`CC(C)N1CCC[C@H](c2nc3cc(Cl)c(Cl)cc3c(=O)n2C)C1` [Compound S-14a, (S)-6,7-dichloro-2-(1-isopropylpiperidin-3-yl)-3-methylquinazolin-4(3H)-one] and `Cn1c([C@H]2CCCN(CC3COC3)C2)nc2cc(Cl)c(Cl)cc2c1=O` [Compound S-14e, (S)-6,7-dichloro-3-methyl-2-(1-(oxetan-3-ylmethyl)piperidin-3-yl)quinazolin-4(3H)-one] cannot be ordered by EC50: greater than 10 µM for the first, greater than 10 µM for the second.

`Cn1c([C@H]2CCCN(CC3CCOCC3)C2)nc2cc(Cl)c(Cl)cc2c1=O` [Compound S-14c, (S)-6,7-dichloro-3-methyl-2-(1-((tetrahydro-2H-pyran-4-yl)methyl)piperidin-3-yl)quinazolin-4(3H)-one] and `Cn1c([C@H]2CCCN(CCN3CCCC3)C2)nc2cc(Cl)c(Cl)cc2c1=O` [Compound S-14cc, (S)-6,7-dichloro-3-methyl-2-(1-(2-(pyrrolidin-1-yl)ethyl)piperidin-3-yl)quinazolin-4(3H)-one] cannot be ordered by EC50: greater than 10 µM for the first, greater than 10 µM for the second.

`CN1CCC[C@@H]2c3nc4ccc(Cl)cc4c(=O)n3CC[C@H]21` [trans-10a-ent 1, (4aR,13bS)-10-chloro-4-methyl-1,2,3,4,4a,5,6,13b-octahydro-8H-[1,6]naphthyridino[5,6-b]quinazolin-8-one] and `CN1CCC[C@@H]2c3nc4ccc(C(F)(F)F)cc4c(=O)n3CC[C@H]21` [trans-10c-ent-1, (4aR,13bS)-4-methyl-10-(trifluoromethyl)-1,2,3,4,4a,5,6,13b-octahydro-8H-[1,6]naphthyridino[5,6-b]quinazolin-8-one] fall in the same range of EC50: 0.1 to 1 µM for the first, 0.1 to 1 µM for the second.

`CN1CCC[C@@H]2c3nc4cc(Cl)c(Cl)cc4c(=O)n3CC[C@H]21` [trans-10e-ent-1, (4aR,13bS)-10,11-dichloro-4-methyl-1,2,3,4,4a,5,6,13b-octahydro-8H-[1,6]naphthyridino[5,6-b]quinazolin-8-one] gave an EC50 of 0.0001 to 0.1 µM.

Same assay, conditions: ATCC30215, positive control, N. fowleri Nf69 trophozoites, 48 h, CellTiter Glo, read-out: N. fowleri EC50

`CCCCCCCCCCCCCCCCOP(=O)([O-])OCC[N+](C)(C)C` [Miltefosine, miltefosine, reference compound] was tested, and the EC50 was 35.7 ± 9.1 µM.
